# According to patent US10059741B2 (priority 2015, dated 2018):
# Like-named read-outs stand apart in the source and are kept apart here. Bridge positions count the residues as written; N and C are the ends. Square brackets hold non-standard residues; d marks the D form. Peptide text beside a SMILES is read from it. R8 = C=CCCCCCC[C@@](C)(N)C(=O)O; S5 = C=CCCC[C@](C)(N)C(=O)O; Nle = CCCC[C@H](N)C(=O)O; Aib = CC(C)(N)C(=O)O
# Legend:
# [1] = test system: H1N1 California/07/2009; assay: microbe, parasite or virus in culture; type: cell-based, influenza A virus
# [2] = in vitro; settings: dog
# [3] = test system: H3N2 Perth/16/2009; assay: microbe, parasite or virus in culture; type: cell-based, influenza A virus
# [4] = test system: H3N2 Perth/16/2009; assay: microbe, parasite or virus in culture; type: cell-based, influenza A virus; remark: listed apart in the source
# [5] = test system: influenza virus, various viral strains; assay: organism not typed; type: cell-based; settings: read-out: EC50
# [6] = test system: H5N1 A/Hong Kong/213/2003; assay: microbe, parasite or virus in culture; type: cell-based, influenza A virus; settings: read-out: EC50
# [7] = test system: H1N1 California/07/2009; assay: microbe, parasite or virus in culture; type: cell-based, influenza A virus; remark: listed apart in the source
# [8] = test system: H7N9 A/Anhui/1/2013; assay: microbe, parasite or virus in culture; type: cell-based, influenza A virus; settings: read-out: EC50
# [9] = test system: H1N1 A/Solomon Island/03/2006; type: cell-based, influenza A virus; settings: read-out: EC50
# [10] = Cytopathic effect/toxicity (Visual), MDCK cells, read-out: EC50 (μM) H1N1 California/07/2009
# [11] = Influenza A H1N1 California/07/2009, Drug Assay Visual, read-out: EC50
# [12] = CC50 (μM) H1N1 California/07/2009, Cell cytotoxicity (CC), run with H1N1 California/07/2009
# [13] = CC50 (μM) H3N2 Perth/16/2009, Cell cytotoxicity (CC), run with H3N2 Perth/16/2009
# [14] = CC50, run with Influenza A H1N1 A/Solomon Is./3/2006-M, Neutral Red
# [15] = CC50, run with Influenza A H1N1 A/Solomon Is./3/2006-M, Visual
# [16] = CC50, run with Influenza A H1N1 California/07/20/09 (so in the source), later run, Neutral Red
# [17] = CC50, run with Influenza A H1N1 California/07/20/09 (so in the source), Visual/Neutral Red
# [18] = CC50, run with Influenza A H1N1 California/07/2009, Neutral Red
# [19] = CC50, run with Influenza A H1N1 California/07/2009, Visual
# [20] = CC50, run with Influenza A H3N2 Perth/16/2006 (so in the source), Neutral Red
# [21] = CC50, run with Influenza A H3N2 Perth/16/2006 (so in the source), Visual
# [22] = CC50, run with Influenza A H3N2 Perth/16/2009, last run, Neutral Red
# [23] = CC50, run with Influenza A H3N2 Perth/16/2009, Visual/Neutral Red
# [24] = Cytopathic effect/toxicity (Visual), MDCK cells, read-out: EC50 (μM) H3N2 Perth/16/2009
# [25] = Influenza A H3N2 Perth/16/2006 (so in the source), Drug Assay Visual, read-out: EC50
# [26] = Cytopathic effect/toxicity (Neutral red), MDCK cells, read-out: EC50 (μM) H3N2 Perth/16/2009
# [27] = Influenza A H3N2 Perth/16/2006 (so in the source), Drug Assay Neutral Red, read-out: EC50
# [28] = Influenza A H3N2 Perth/16/2009, last run, Drug Assay Neutral Red, read-out: EC50
# [29] = Influenza A H3N2 Perth/16/2009, Drug Assay Visual/Neutral Red
# [30] = Influenza A H1N1 A/Solomon Is./3/2006-M, Drug Assay Visual
# [31] = Cytopathic effect/toxicity (Neutral red), MDCK cells, read-out: EC50 (μM) H1N1 California/07/2009
# [32] = Influenza A H1N1 California/07/20/09 (so in the source), later run, Drug Assay Neutral Red, read-out: EC50
# [33] = Influenza A H1N1 California/07/20/09 (so in the source), Drug Assay Visual/Neutral Red
# [34] = Influenza A H1N1 California/07/2009, Drug Assay Neutral Red, read-out: EC50
# [35] = Influenza A H1N1 A/Solomon Is./3/2006-M, Drug Assay Neutral Red
# [36] = read-out: EC50 (μM) H1N1 California/07/2009
# [37] = read-out: EC50 (μM) H3N2 Perth/16/2009
SMILES,"EC50 [1, 10] [µM]","EC50 [1, 11] [µM]",CC50 ([2]; CC50) [µM],"CC50 [2, 12] [µM]","CC50 [2, 13] [µM]","CC50 [2, 14] [µM]","CC50 [2, 15] [µM]","CC50 [2, 16] [µM]","CC50 [2, 17] [µM]","CC50 [2, 18] [µM]","CC50 [2, 19] [µM]","CC50 [2, 20] [µM]","CC50 [2, 21] [µM]","CC50 [2, 22] [µM]","CC50 [2, 23] [µM]","EC50 [3, 24] [µM]","EC50 [3, 25] [µM]","EC50 [4, 26] [µM]",EC50 [6] [µM],EC50 [8] [µM],also measured
CCCC[C@H](NC(C)=O)C(=O)N[C@@H](CC(=O)O)C(=O)N[C@H](C(=O)N[C@@H](CC(N)=O)C(=O)N[C@]1(C)CCCCCCC=CCCC[C@@](C)(C(=O)N[C@@H](CCC(N)=O)C(=O)N[C@@H](C)C(=O)N[C@@H](C)C(=O)N[C@@H](C)C(=O)N[C@@H](C)C(N)=O)NC(=O)[C@H](C)NC(=O)[C@H](CC(C)C)NC(=O)[C@H](Cc2ccccc2)NC(=O)[C@H](CC(C)C)NC(=O)[C@H](CC(C)C)NC(=O)[C@H]([C@@H](C)O)NC1=O)C(C)C [SP-27] (Ac-[Nle]DVN[R8]TLLFLA[S5]QAAAA-NH2; staple 5-12),< 1.5,0.57,> 50,> 100,> 100,> 100,> 100,> 100,> 100,> 100,> 100,> 100,> 100,> 100,> 100,< 1.5,0.32,1.5 to 10,> 50,9.6,"EC50 [4, 27]: 1.7 µM; EC50 [4, 28]: 35 µM; EC90 [4, 29]: 35 µM; EC50 [5, 30]: 32 µM; EC50 [7, 31]: < 1.5 µM; EC50 [7, 32]: 8.7 µM; EC90 [7, 33]: 8 µM; EC50 [7, 34]: 0.44 µM; EC50 [9, 35]: 75 µM"
CCCC[C@H](NC(C)=O)C(=O)N[C@@H](CC(=O)O)C(=O)N[C@H](C(=O)N[C@@H](CC(N)=O)C(=O)N[C@@]1(C)CCCC=CCCC[C@@](C)(C(=O)N[C@@H](CC(C)C)C(=O)N[C@@H](C)C(=O)N[C@H](C(=O)N[C@@H](CCC(N)=O)C(=O)N[C@@H](C)C(=O)N[C@@H](C)C(=O)NC(C)(C)C(=O)N[C@@H](C)C(N)=O)C(C)C)NC(=O)[C@H](CC(C)C)NC(=O)[C@H](CC(C)C)NC(=O)[C@H]([C@@H](C)O)NC1=O)C(C)C [SP-22] (Ac-[Nle]DVN[S5]TLL[S5]LAVQAA[Aib]A-NH2; staple 5-9),–,–,> 50,> 100,> 100,> 100,> 100,> 100,> 100,> 100,> 100,> 100,> 100,> 100,> 100,–,–,–,> 50,13,"EC50 ([1]; read-out: EC50): 1.8 µM; EC50 [1, 36]: 1.5 to 10 µM; EC50 ([3]; read-out: EC50): 0.54 µM; EC50 [3, 37]: < 1.5 µM; EC90 [4]: 59 µM; EC50 [4, 37]: < 1.5 µM; EC50 [5]: 12 µM; EC90 [7]: 6.5 µM; EC50 [7, 36]: 1.5 to 10 µM; EC50 [9]: 29 µM"
CCCC[C@H](NC(C)=O)C(=O)N[C@@H](CC(=O)O)C(=O)N[C@H](C(=O)N[C@@H](CC(N)=O)C(=O)N[C@]1(C)CCCCCCC=CCCC[C@@](C)(C(=O)N[C@@H](C)C(=O)N[C@@H](C)C(=O)N[C@@H](C)C(=O)N[C@@H](C)C(=O)N[C@@H](C)C(N)=O)NC(=O)[C@H](C)NC(=O)[C@H](CC(C)C)NC(=O)[C@H](Cc2ccccc2)NC(=O)[C@H](CC(C)C)NC(=O)[C@H](CC(C)C)NC(=O)[C@H]([C@@H](C)O)NC1=O)C(C)C [SP-25] (Ac-[Nle]DVN[R8]TLLFLA[S5]AAAAA-NH2; staple 5-12),< 1.5,0.57,> 50,> 100,> 100,> 100,> 100,> 100,> 100,> 100,> 100,> 100,> 100,> 100,> 100,< 1.5,0.34,< 1.5,> 50,33,"EC50 [4, 27]: 0.43 µM; EC50 [4, 28]: 49 µM; EC90 [4, 29]: 49 µM; EC50 [5, 30]: 3.6 µM; EC50 [7, 31]: < 1.5 µM; EC50 [7, 32]: 6.6 µM; EC90 [7, 33]: 8.2 µM; EC50 [7, 34]: 1.1 µM; EC50 [9, 35]: 6.5 µM"
